Source: patent US20130072714A1, “BIOBASED COMPOSITIONS OF DIAMMONIUM SUCCINATE, MONOAMMONIUM SUCCINATE AND/OR SUCCINIC ACID AND DERIVATIVES THEREOF” (BioAmber International S.à.r.l., priority 2011, published 2013)
Entries after “also recorded” stand apart in the source; their conditions may differ.

Test: Heated color test: SA plus 1,4-butanediol with trace glucose and/or alanine, 180° C., visual inspection
Format: physicochemical
Conditions: 1.0 gram 1,4-butanediol plus 0.5 gram SA, 2 hours
Procedure: Glass vials were charged with 1,4-butanediol, pure SA, and trace levels of either glucose, alanine, or both. The vials were heated at 180° C. for 2 hours and any color changes observed by visual inspection. [table]

## C[C@H](N)C(=O)O [Alanine, alanine]
Impurity 10 ppm
  color change on heating, single impurity: No color
Impurity 100 ppm
  color change on heating, single impurity: No color
Impurity 1000 ppm
  color change on heating, single impurity: Slight yellow

## O=C(O)CCC(=O)O [SA, succinic acid]
Glucose 5 ppm, alanine 5 ppm
  color change on heating, two impurities: No color
Glucose 5 ppm, alanine 50 ppm
  color change on heating, two impurities: yellow color; also recorded: Slight
Glucose 5 ppm, alanine 500 ppm
  color change on heating, two impurities: Slight
Glucose 50 ppm, alanine 5 ppm
  color change on heating, two impurities: No color
Glucose 50 ppm, alanine 50 ppm
  color change on heating, two impurities: Slight
Glucose 50 ppm, alanine 500 ppm
  color change on heating, two impurities: Light
Glucose 500 ppm, alanine 5 ppm
  color change on heating, two impurities: No color
Glucose 500 ppm, alanine 50 ppm
  color change on heating, two impurities: Slight
Glucose 500 ppm, alanine 500 ppm
  color change on heating, two impurities: Light
